Data on 1 compound can be found in US10724100B2, “Systems and methods for treating patients having a genetic predisposition to develop prostate cancer” (Institute for Cancer Research, priority 2015, dated 2020).

The test system of the assay is peripheral blood lymphocytes (PBLs) of prostate cancer patients and matched controls. The assay can be described thus: γH2AX foci immunofluorescence in PHA/IL-2-stimulated peripheral blood lymphocytes after DNA damaging agents. The assay is classed as cell-based, human. Particulars: PBLs from 9 patients and 10 age- and gender-matched controls; 10 μM aphidicolin or 25 μM etoposide; fixed 2 hours later; p=0.0337 (aphidicolin), p=0.007 (etoposide).

Experimental: Peripheral blood lymphocytes (PBLs) were available from 9/12 of the exome sequenced patients and 10 age-matched and gender-matched individuals without a cancer diagnosis or a family history of cancer. […] For analysis of DDR, cells were cultured in RPMI-1640 containing 15% fetal bovine serum (HyClone Laboratories, Logan, Utah), 2 mM L-glutamine (Life Technologies, Grand Island, N.Y.), 50 μM 2-mercaptoethanol (Sigma-Aldrich, St. Louis, Mo.), 0.2 units human recombinant insulin (Sigma) per ml, 50 units penicillin and 50 mg streptomycin per ml (complete RPMI), and then stimulated with phytohemagglutinin (PHA)-M (Life Technologies, Grand Island, N.Y.) and recombinant human interleukin 2 (IL-2) (NCI Preclinical Repository) for 72 hours. […] For immunofluorescence, cells were allowed to attach to poly-d-lysine-coated 96-well plates, stained with anti-γH2AX antibody (#05-636, Millipore, Temecula, Calif.). Sixteen images per well were acquired at 20× (with each image acquired in 2 channels to detect γH2AX with TRITC and total DNA with DAPI) utilizing the ImageXpress micro automated microscope (Molecular Devices, Sunnyvale, Calif.) driven by MetaXpress software. […]

Turning to `C[C@@]1(CO)[C@H](O)CC[C@@]2(C)[C@H]1CC[C@H]1C[C@@H]3C[C@@]12CC[C@]3(O)CO` [aphidicolin], the “γH2AX induction (nuclear γH2AX foci per cell), cases versus controls” value is on record as “higher magnitude of induction seen in prostate cancer patients”.
